Source: patent publication US20090036444A1, “5-5-Membered fused heterocyclic compound and use thereof as HCV polymerase inhibitor” (priority 2003, published 2009)
pIC50: −log10 of the molar value. Structures can show the parent of a compound that is named as a salt. Where two headings read alike, the source gives them in different places.

Tests used:
[1] = target: T1, HCV polymerase H544 1a 3X (UniProt P27958); assay: Assay of enzyme (HCV polymerase) inhibitory activity, H544 1a 3X; type: biochemical
T1 construct: fused on or other part: 6 His tag at the C-terminus, for the BK (1b) enzyme

[2] = target: T2, HCV polymerase H544 1b 3X (Hepatitis C virus genotype 1b, UniProt P26663); assay: Assay of enzyme (HCV polymerase) inhibitory activity, H544 1b 3X; type: biochemical, HCV BK strain
T2 construct: a region encoding NS5B (J Virol 1991 March, 65(3), 1105-13, 544 amino acids after deletion of 47 amino acids on the C-terminal); 6 His (C); made in house; host or cells: Escherichia coli
T2 sequence (P26663 2420-2963): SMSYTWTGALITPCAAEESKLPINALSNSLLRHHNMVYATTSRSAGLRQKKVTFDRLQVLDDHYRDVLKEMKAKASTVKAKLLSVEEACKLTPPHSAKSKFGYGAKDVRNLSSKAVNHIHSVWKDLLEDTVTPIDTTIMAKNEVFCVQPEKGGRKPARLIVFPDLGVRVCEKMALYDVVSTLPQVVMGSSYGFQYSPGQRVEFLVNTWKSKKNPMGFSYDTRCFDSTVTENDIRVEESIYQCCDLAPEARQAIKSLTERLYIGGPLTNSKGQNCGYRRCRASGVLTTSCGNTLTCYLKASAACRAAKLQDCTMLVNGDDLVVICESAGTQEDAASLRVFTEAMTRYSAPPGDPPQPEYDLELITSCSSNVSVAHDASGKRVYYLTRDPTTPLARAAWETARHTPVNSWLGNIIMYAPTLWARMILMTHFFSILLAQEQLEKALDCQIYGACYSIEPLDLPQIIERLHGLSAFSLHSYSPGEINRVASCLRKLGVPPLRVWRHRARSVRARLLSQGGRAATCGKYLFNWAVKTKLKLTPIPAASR
From the text: The evaluation of the HCV polymerase inhibitory activity of the compound of the present invention is explained in the following. This polymerase is an enzyme coded for by the non-structural protein region called NS5B on the genome RNA of HCV (EMBO J., 15:12-22, 1996).
Using, as a template, a cDNA clone corresponding to the full length genome RNA of HCV BK strain obtained from the blood of a patient with hepatitis C, a region encoding NS5B (J Virol 1991 March, 65(3), 1105-13, 544 amino acids after deletion of 47 amino acids on the C-terminal) was amplified by PCR. The objective gene was prepared by adding a 6 His tag {base pair encoding 6 continuous histidine (His)} to the 3′ end thereof and transformed to Escherichia coli. The Escherichia coli capable of producing the objective protein was cultured. The obtained cells were suspended in a buffer solution and crushed in a microfluidizer. The supernatant was obtained by centrifugation and applied to various column chromatographys {mono-S, Sephacryl S-200 (Pharmacia)}, inclusive of metal chelate chromatography, to give a standard enzyme product.
Using a synthetic primer designed based on the sequence of HCV genomic 3′ untranslated region, a DNA fragment (148 bp) containing polyU and 3′X sequence was entirely synthesized and cloned into plasmid pBluescript SK II (+) (Stratagene). The cDNA encoding full length NS5B, which was prepared in i) above, was digested with restriction enzyme KpnI to give a cDNA fragment containing the nucleotide sequence of from the restriction enzyme cleavage site to the termination codon. This cDNA fragment was inserted into the upstream of 3′ untranslated region of the DNA in pBluescript SK II(+) and ligated. The about 450 bp inserted DNA sequence was used as a template in the preparation of substrate RNA. This plasmid was cleaved immediately after the 3′X sequence, linearized and purified by phenol-chloroform treatment and ethanol precipitation to give DNA.
RNA was synthesized (37° C., 3 hr) by run-off method using this purified DNA as a template, a promoter of pBluescript SK II(+), MEGAscript RNA synthesis kit (Ambion) and T7 RNA polymerase. DNase I was added and the mixture was incubated for 1 hr. The template DNA was removed by decomposition to give a crude RNA product. This crude product was treated with phenol-chloroform and purified by ethanol precipitation to give the objective substrate RNA.
This RNA was applied to formaldehyde denaturation agarose gel electrophoresis to confirm the quality thereof and preserved at −80° C.
A test substance (compound of the present invention) and a reaction mixture (30 μl) having the following composition were reacted at 25° C. for 90 min. 10% Trichloroacetic acid at 4° C. and 1% sodium pyrophosphate solution (150 μl) were added to this reaction mixture to stop the reaction. The reaction mixture was left standing in ice for 15 min to insolubilize RNA. This RNA was trapped on a glass filter (Whatman GF/C and the like) upon filtration by suction. This filter was washed with a solution containing 1% trichloroacetic acid and 0.1% sodium pyrophosphate, washed with 90% ethanol and dried. A liquid scintillation cocktail (Packard) was added and the radioactivity of RNA synthesized by the enzyme reaction was measured on a liquid scintillation counter.
The HCV polymerase inhibitory activity (IC50) of the compound of the present invention was calculated from the values of radioactivity of the enzyme reaction with and without the test substance.
The results are shown in Table 18, wherein each symbol means that IC50 falls within the following range.
Reaction mixture: HCV polymerase (0.5 μg/ml) obtained in i), substrate RNA (5 μg/ml) obtained in ii), ATP (50 μM), GTP (50 μM), CTP (50 μM), UTP (2 μM), [5,6-^3H] UTP (46 Ci/mmol (Amersham), 1 μCi) 20 mM Tris-HCl (pH 7.5), EDTA (1 mM), MgCl2 (5 mM), NaCl (50 mM), DTT (1 mM), BSA (0.01%)

[3] = 25° C., 90 min, [5,6-3H]UTP incorporation, read-out: H544 1a 3X IC50
[4] = read-out: H544 1a 3X IC50, 25° C., 90 min, [5,6-3H]UTP incorporation

Structure (SMILES)	pIC50 [1, 3]	pIC50 [2]	pIC50 [1, 4]
COc1ccc(-c2c(C3CCCCC3)c3sc(C(=O)O)cc3n2CC(=O)NCc2ccccc2)cc1 [Example 32, 4-(benzylcarbamoylmethyl)-6-cyclohexyl-5-(4-methoxyphenyl)-4H-thieno[3,2-b]pyrrole-2-carboxylic acid]	> 7.00	> 7.00	–
COc1ccc(-c2c(C3CCCCC3)c3sc(C(=O)O)cc3n2CC(=O)NC(C)(C)C)cc1 [Example 33, 4-(tert-butylcarbamoylmethyl)-6-cyclohexyl-5-(4-methoxyphenyl)-4H-thieno[3,2-b]pyrrole-2-carboxylic acid]	> 7.00	6.00 to 7.00	–
Cn1c(-c2ccc(OCc3ccc(N4CCCC4=O)cc3N3CCOCC3)cc2)c(C2CCCCC2)c2sc(C(=O)O)cc21 [Example 34, 6-cyclohexyl-4-methyl-5-{4-[2-morpholino-4-(2-oxopyrrolidin-1-yl)benzyloxy]phenyl}-4H-thieno[3,2-b]pyrrole-2-carboxylic acid hydrochloride]	> 7.00	> 7.00	–
Cn1c(-c2ccccc2OCc2ccccc2)c(C2CCCCC2)c2sc(C(=O)O)cc21 [Example 35, 5-(2-benzyloxyphenyl)-6-cyclohexyl-4-methyl-4H-thieno[3,2-b]pyrrole-2-carboxylic acid]	6.00 to 7.00	6.00 to 7.00	–
CN(C)C(=O)Cn1c(-c2ccccc2OCc2ccccc2)c(C2CCCCC2)c2sc(C(=O)O)cc21 [Example 36, 5-(2-benzyloxyphenyl)-6-cyclohexyl-4-dimethylcarbamoylmethyl-4H-thieno[3,2-b]pyrrole-2-carboxylic acid]	6.00 to 7.00	6.00 to 7.00	–
CN(C)C(=O)Cn1c(-c2ccc(OC3CCCN(C(=O)OC(C)(C)C)C3)cc2)c(C2CCCCC2)c2sc(C(=O)O)cc21 (stereo not shown) [Example 37, 5-[4-(1-tert-butoxycarbonylpiperidin-3-yloxy)phenyl]-6-cyclohexyl-4-dimethylcarbamoylmethyl-4H-thieno[3,2-b]pyrrole-2-carboxylic acid]	> 7.00	> 7.00	–
CN(C)C(=O)Cn1c(-c2ccc(OCc3ccccc3N3CCOCC3)cc2)c(C2CCCCC2)c2sc(C(=O)O)cc21 [Example 38, 6-cyclohexyl-4-dimethylcarbamoylmethyl-5-[4-(2-morpholinobenzyloxy)phenyl]-4H-thieno[3,2-b]pyrrole-2-carboxylic acid]	> 7.00	> 7.00	–
CN(C)C(=O)Cn1c(-c2ccc(OC3CCN(C(=O)OC(C)(C)C)CC3)cc2)c(C2CCCCC2)c2sc(C(=O)O)cc21 [Example 39, 5-[4-(1-tert-butoxycarbonylpiperidin-4-yloxy)phenyl]-6-cyclohexyl-4-dimethylcarbamoylmethyl-4H-thieno[3,2-b]pyrrole-2-carboxylic acid]	6.00 to 7.00	> 7.00	–
CN(C)CC(=O)Nc1ccc(N2CCOCC2)c(COc2ccc(-c3c(C4CCCCC4)c4sc(C(=O)O)cc4n3C)cc2)c1 [Example 40, 6-cyclohexyl-5-{4-[5-(2-dimethylaminoacetylamino)-2-morpholinobenzyloxy]phenyl}-4-methyl-4H-thieno[3,2-b]pyrrole-2-carboxylic acid dihydrochloride]	–	> 7.00	> 7.00
Cn1c(-c2ccc(OCc3cc(NC(=O)CN4CCOCC4)ccc3N3CCOCC3)cc2)c(C2CCCCC2)c2sc(C(=O)O)cc21 [Example 41, 6-cyclohexyl-4-methyl-5-{4-[2-morpholino-5-(2-morpholinoacetylamino)benzyloxy]phenyl}-4H-thieno[3,2-b]pyrrole-2-carboxylic acid dihydrochloride]	–	> 7.00	> 7.00
CN(C)C(=O)Cn1c(-c2ccc(Oc3ccccc3)cc2)c(C2CCCCC2)c2sc(C(=O)O)cc21 [Example 42, 6-cyclohexyl-4-dimethylcarbamoylmethyl-5-(4-phenoxyphenyl)-4H-thieno[3,2-b]pyrrole-2-carboxylic acid]	> 7.00	> 7.00	–
CN(C)CC(=O)N(C)c1ccc(N2CCOCC2)c(COc2ccc(-c3c(C4CCCCC4)c4sc(C(=O)O)cc4n3C)cc2)c1 [Example 43, 6-cyclohexyl-5-(4-{5-[N-(2-dimethylaminoacetyl)-N-methylamino]-2-morpholinobenzyloxy}phenyl)-4-methyl-4H-thieno[3,2-b]pyrrole-2-carboxylic acid dihydrochloride]	–	> 7.00	> 7.00
CC(C)(C)NC(=O)Cn1c(-c2ccc(OCc3ccccc3)cc2)c(C2CCCCC2)c2sc(C(=O)O)cc21 [Example 44, 5-(4-benzyloxyphenyl)-4-(tert-butylcarbamoylmethyl)-6-cyclohexyl-4H-thieno[3,2-b]pyrrole-2-carboxylic acid]	6.00 to 7.00	6.00 to 7.00	–
O=C(O)c1cc2c(s1)c(C1CCCCC1)c(-c1ccc(OCc3ccccc3)cc1)n2Cc1ccccc1 [Example 45, 4-benzyl-5-(4-benzyloxyphenyl)-6-cyclohexyl-4H-thieno[3,2-b]pyrrole-2-carboxylic acid]	6.00 to 7.00	6.00 to 7.00	–
CN(C)CCn1c(-c2ccc(OCc3ccccc3)cc2)c(C2CCCCC2)c2sc(C(=O)O)cc21 [Example 46, 5-(4-benzyloxyphenyl)-6-cyclohexyl-4-(2-dimethylaminoethyl)-4H-thieno[3,2-b]pyrrole-2-carboxylic acid]	6.00 to 7.00	6.00 to 7.00	–
O=C(O)c1cc2c(s1)c(C1CCCCC1)c(-c1ccc(OCc3ccccc3)cc1)n2CCN1CCOCC1 [Example 47, 5-(4-benzyloxyphenyl)-6-cyclohexyl-4-(2-morpholinoethyl)-4H-thieno[3,2-b]pyrrole-2-carboxylic acid]	6.00 to 7.00	6.00 to 7.00	–
O=C(O)c1cc2c(s1)c(C1CCCCC1)c(-c1ccc(OCc3ccccc3)cc1)n2CC1CCCCC1 [Example 48, 5-(4-benzyloxyphenyl)-6-cyclohexyl-4-cyclohexylmethyl-4H-thieno[3,2-b]pyrrole-2-carboxylic acid]	6.00 to 7.00	6.00 to 7.00	–
COCCn1c(-c2ccc(OCc3ccccc3)cc2)c(C2CCCCC2)c2sc(C(=O)O)cc21 [Example 49, 5-(4-benzyloxyphenyl)-6-cyclohexyl-4-(2-methoxyethyl)-4H-thieno[3,2-b]pyrrole-2-carboxylic acid]	6.00 to 7.00	6.00 to 7.00	–
CN(CC(=O)N1CCCCC1)C(=O)Cn1c(-c2ccc(OCc3ccccc3)cc2)c(C2CCCCC2)c2sc(C(=O)O)cc21 [Example 50, 5-(4-benzyloxyphenyl)-6-cyclohexyl-4-{[N-methyl-N-(2-oxo-2-piperidinoethyl)carbamoyl]methyl}-4H-thieno[3,2-b]pyrrole-2-carboxylic acid]	> 7.00	> 7.00	–
O=C(Cn1c(-c2ccc(OCc3ccccc3)cc2)c(C2CCCCC2)c2sc(C(=O)O)cc21)Nc1ccc(N2CCOCC2)cc1 [Example 51, 5-(4-benzyloxyphenyl)-6-cyclohexyl-4-[(4-morpholinophenylcarbamoyl)methyl]-4H-thieno[3,2-b]pyrrole-2-carboxylic acid hydrochloride]	> 7.00	> 7.00	–
